Results: ChEMBL document CHEMBL1201861, “Genomics of Drug Sensitity in Cancer screening data, Wellcome Trust Sanger Institute”

Tests used:
Assay in all cases: cells
SW872 = assay type: functional, cell-based, Homo sapiens; conditions: Homo sapiens, SW872;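 further: growth inhibition of SW872 cells, read out by a viability assay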
Description: SANGER: Inhibition of human SW872 cell growth in a cell viability assay.

DB = assay type: functional, cell-based, Homo sapiens; conditions: Homo sapiens, DB
Description: SANGER: Inhibition of human DB cell growth in a cell viability assay.

MC116 = assay type: functional, cell-based, Homo sapiens; conditions: Homo sapiens, MC116;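 further: growth inhibition of MC116 cells, read out with a cell viability assay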
Description: SANGER: Inhibition of human MC116 cell growth in a cell viability assay.

JAR = assay type: functional, cell-based, Homo sapiens; conditions: Homo sapiens, JAR;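 further: growth inhibition of human JAR cells determined with a cell viability assay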
Description: SANGER: Inhibition of human JAR cell growth in a cell viability assay.

MHH-NB-11 = assay type: functional, cell-based, Homo sapiens; conditions: Homo sapiens, MHH-NB-11;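 further: growth inhibition of human MHH-NB-11 cells, read out by a cell viability assay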
Description: SANGER: Inhibition of human MHH-NB-11 cell growth in a cell viability assay.

DMS-114 = assay type: functional, cell-based, Homo sapiens; conditions: Homo sapiens, DMS-114
LS-411N = assay type: functional, cell-based, Homo sapiens; conditions: Homo sapiens, LS-411N
D-247MG = assay type: functional, cell-based; conditions: Homo sapiens
Description: SANGER: Inhibition of human D-247MG cell growth in a cell viability assay.

COLO-684 = assay type: functional, cell-based, Homo sapiens; conditions: Homo sapiens, COLO-684
Description: SANGER: Inhibition of human COLO-684 cell growth in a cell viability assay.

8-MG-BA = assay type: functional, cell-based, Homo sapiens; conditions: Homo sapiens, 8-MG-BA;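 further: growth inhibition of 8-MG-BA cells, read out with a cell viability assay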
Description: SANGER: Inhibition of human 8-MG-BA cell growth in a cell viability assay.

NMC-G1 = assay type: functional, cell-based, Homo sapiens; conditions: Homo sapiens, NMC-G1;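 further: growth inhibition of the NMC-G1 cell line, measured with a cell viability read-out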
Description: SANGER: Inhibition of human NMC-G1 cell growth in a cell viability assay.

DSH1 = assay type: functional, cell-based; conditions: Homo sapiens;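 further: growth inhibition of human DSH1 cells, measured with a cell viability readout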
Description: SANGER: Inhibition of human DSH1 cell growth in a cell viability assay.

HAL-01 = assay type: functional, cell-based, Homo sapiens; conditions: Homo sapiens, HAL-01;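 further: growth inhibition of human HAL-01 cells, read out with a cell viability assay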
Description: SANGER: Inhibition of human HAL-01 cell growth in a cell viability assay.

no-10 = assay type: functional, cell-based, Homo sapiens; conditions: Homo sapiens;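 further: growth inhibition of no-10 cells, read out with a cell viability assay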
Description: SANGER: Inhibition of human no-10 cell growth in a cell viability assay.

KM-H2 = assay type: functional, cell-based, Homo sapiens; conditions: Homo sapiens, KM-H2;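 further: growth inhibition of KM-H2 cells, read out by a cell viability assay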
Description: SANGER: Inhibition of human KM-H2 cell growth in a cell viability assay.

NCI-H1650 = assay type: functional, cell-based, Homo sapiens; conditions: Homo sapiens, NCI-H1650;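 further: growth inhibition of human NCI-H1650 cells measured by a cell viability assay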
Description: SANGER: Inhibition of human NCI-H1650 cell growth in a cell viability assay.

LB2241-RCC = assay type: functional, cell-based, Homo sapiens; conditions: Homo sapiens, LB2241-RCC;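 further: cell viability assay measuring how strongly the cultured human renal carcinoma line is prevented from growing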
Description: SANGER: Inhibition of human LB2241-RCC cell growth in a cell viability assay.

CW-2 = assay type: functional, cell-based, Homo sapiens; conditions: Homo sapiens, CW-2;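 further: growth inhibition of CW-2 cells, read out by a cell viability assay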
Description: SANGER: Inhibition of human CW-2 cell growth in a cell viability assay.

GB-1 = assay type: functional, cell-based, Homo sapiens; conditions: Homo sapiens, GB-1;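 further: growth of GB-1 cells judged by a viability assay, IC50 marks the concentration inhibiting growth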
Description: SANGER: Inhibition of human GB-1 cell growth in a cell viability assay.

NB6 = assay type: functional, cell-based, Homo sapiens; conditions: Homo sapiens, NB6;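 further: growth inhibition of NB6 cells, read out by a cell viability assay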
Description: SANGER: Inhibition of human NB6 cell growth in a cell viability assay.

GT3TKB = assay type: functional, cell-based, Homo sapiens; conditions: Homo sapiens, GT3TKB;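 further: growth inhibition of the cell line, read out with a cell viability assay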
Description: SANGER: Inhibition of human GT3TKB cell growth in a cell viability assay.

EOL1 = assay type: functional, cell-based, Homo sapiens; conditions: Homo sapiens, EOL1;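 further: growth inhibition of EoL-1 cells, read out by a cell viability assay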
Description: SANGER: Inhibition of human EoL-1-cell cell growth in a cell viability assay.

TE-9 = assay type: functional, cell-based, Homo sapiens; conditions: Homo sapiens, TE-9;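 further: cell growth inhibition, measured with a cell viability readout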
Description: SANGER: Inhibition of human TE-9 cell growth in a cell viability assay.

MLMA = assay type: functional, cell-based, Homo sapiens; conditions: Homo sapiens, MLMA;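 further: growth inhibition of MLMA cells (human), determined through a cell viability readout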
Description: SANGER: Inhibition of human MLMA cell growth in a cell viability assay.

ES3 = assay type: functional, cell-based, Homo sapiens; conditions: Homo sapiens, ES3;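 further: growth inhibition of ES3 cells, read out with a cell viability assay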
Description: SANGER: Inhibition of human ES3 cell growth in a cell viability assay.

SCC-15 = assay type: functional, cell-based, Homo sapiens; conditions: Homo sapiens, SCC-15;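 further: growth inhibition of SCC-15 cells, read out with a cell viability assay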
Description: SANGER: Inhibition of human SCC-15 cell growth in a cell viability assay.

TGBC24TKB = assay type: functional, cell-based; conditions: Homo sapiens;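 further: growth inhibition of human TGBC24TKB cells, read out with a cell viability assay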
Description: SANGER: Inhibition of human TGBC24TKB cell growth in a cell viability assay.

GCIY = assay type: functional, cell-based, Homo sapiens; conditions: Homo sapiens, GCIY;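 further: growth inhibition of the human GCIY cell line, read out by a cell viability assay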
Description: SANGER: Inhibition of human GCIY cell growth in a cell viability assay.

COLO-824 = assay type: functional, cell-based, Homo sapiens; conditions: Homo sapiens, COLO-824
Description: SANGER: Inhibition of human COLO-824 cell growth in a cell viability assay.

BT-474 = assay type: functional, cell-based, Homo sapiens; conditions: Homo sapiens, BT-474
Description: SANGER: Inhibition of human BT-474 cell growth in a cell viability assay.

A498 = assay type: functional, cell-based, Homo sapiens; conditions: Homo sapiens, A498;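 further: growth inhibition of human A498 cells, read out with a cell viability assay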
Description: SANGER: Inhibition of human A498 cell growth in a cell viability assay.

RS4-11 = assay type: functional, cell-based, Homo sapiens; conditions: Homo sapiens, RS4-11;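 further: growth inhibition of RS4-11 cells, read out by a cell viability assay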
Description: SANGER: Inhibition of human RS4-11 cell growth in a cell viability assay.

NCI-H526 = assay type: functional, cell-based, Homo sapiens; conditions: Homo sapiens, NCI-H526;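 further: growth inhibition of the human NCI-H526 cell line, measured by a cell viability assay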
Description: SANGER: Inhibition of human NCI-H526 cell growth in a cell viability assay.

HH = assay type: functional, cell-based, Homo sapiens; conditions: Homo sapiens, HH
Description: SANGER: Inhibition of human HH cell growth in a cell viability assay.

SW982 = assay type: functional, cell-based; conditions: Homo sapiens;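 further: growth inhibition of SW982 cells, read out with a cell viability assay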
Description: SANGER: Inhibition of human SW982 cell growth in a cell viability assay.

MHH-PREB-1 = assay type: functional, cell-based, Homo sapiens; conditions: Homo sapiens, MHH-PREB-1;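 further: cell viability assay measuring inhibition of proliferation of human MHH-PREB-1 cells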
Description: SANGER: Inhibition of human MHH-PREB-1 cell growth in a cell viability assay.

TGW = assay type: functional, cell-based, Homo sapiens; conditions: Homo sapiens, TGW;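 further: growth inhibition of human TGW cells, read out with a cell viability assay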
Description: SANGER: Inhibition of human TGW cell growth in a cell viability assay.

LS-123 = assay type: functional, cell-based, Homo sapiens; conditions: Homo sapiens, LS-123
Description: SANGER: Inhibition of human LS-123 cell growth in a cell viability assay.

GR-ST = assay type: functional, cell-based, Homo sapiens; conditions: Homo sapiens, GR-ST
Description: SANGER: Inhibition of human GR-ST cell growth in a cell viability assay.

K5 = assay type: functional, cell-based, Homo sapiens; conditions: Homo sapiens, K5
Description: SANGER: Inhibition of human K5 cell growth in a cell viability assay.

ES8 = assay type: functional, cell-based, Homo sapiens; conditions: Homo sapiens, ES8;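 further: growth inhibition of human ES8 cells, read out with a cell viability assay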
Description: SANGER: Inhibition of human ES8 cell growth in a cell viability assay.

A253 cell line = assay type: functional, cell-based, Homo sapiens; conditions: Homo sapiens, A253;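 further: growth inhibition of A253 cells, read out with a cell viability assay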
Description: SANGER: Inhibition of human A253 cell growth in a cell viability assay.

TE-11 = assay type: functional, cell-based; conditions: Homo sapiens;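 further: growth inhibition of human TE-11 cells, read out by a cell viability assay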
Description: SANGER: Inhibition of human TE-11 cell growth in a cell viability assay.

BB65-RCC = assay type: functional, cell-based, Homo sapiens; conditions: Homo sapiens, BB65-RCC;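 further: growth inhibition of the cell line, measured with a cell viability assay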
Description: SANGER: Inhibition of human BB65-RCC cell growth in a cell viability assay.

COLO-320-HSR = assay type: functional, cell-based, Homo sapiens; conditions: Homo sapiens, COLO-320-HSR;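 further: growth inhibition of COLO-320-HSR cells, determined with a cell viability assay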
Description: SANGER: Inhibition of human COLO-320-HSR cell growth in a cell viability assay.

C2BBe1 = assay type: functional, cell-based, Homo sapiens; conditions: Homo sapiens, C2BBe1;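 further: growth inhibition of C2BBe1 cells, read out through a viability assay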
Description: SANGER: Inhibition of human C2BBe1 cell growth in a cell viability assay.

LB1047-RCC = assay type: functional, cell-based, Homo sapiens; conditions: Homo sapiens, LB1047-RCC;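 further: inhibition of cell growth, determined with a cell viability assay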
Description: SANGER: Inhibition of human LB1047-RCC cell growth in a cell viability assay.

SF-268 = assay type: functional, cell-based, Homo sapiens; conditions: Homo sapiens, SF-268;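 further: growth inhibition of SF-268 cells determined with a cell viability assay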
Description: SANGER: Inhibition of human SF268 cell growth in a cell viability assay.

BE-13 = assay type: functional, cell-based, Homo sapiens; conditions: Homo sapiens, BE-13;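 further: growth inhibition of human BE-13 cells, measured with a cell viability assay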
Description: SANGER: Inhibition of human BE-13 cell growth in a cell viability assay.

SJSA-1 = assay type: functional, cell-based, Homo sapiens; conditions: Homo sapiens, SJSA-1;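 further: growth inhibition of human SJSA-1 cells, read out through a cell viability measurement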
Description: SANGER: Inhibition of human SJSA-1 cell growth in a cell viability assay.

DEL = assay type: functional, cell-based, Homo sapiens; conditions: Homo sapiens, DEL;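 further: growth inhibition of the human DEL cell line, read out with a cell viability assay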
Description: SANGER: Inhibition of human DEL cell growth in a cell viability assay.

Measured: IC50

COC(=O)[C@H](CCSC)NC(=O)c1ccc(NC[C@@H](N)CS)cc1-c1ccccc1
> 1020 nM: SW872 | DB | MC116 | JAR | MHH-NB-11 | DMS-114 | LS-411N | D-247MG | COLO-684 | 8-MG-BA | NMC-G1 | DSH1 | HAL-01 | no-10 | KM-H2 | NCI-H1650 | LB2241-RCC | CW-2 | GB-1 | NB6 | GT3TKB | EOL1 | TE-9 | MLMA | ES3 | SCC-15 | TGBC24TKB | GCIY | COLO-824 | BT-474 | A498 | RS4-11 | NCI-H526 | HH | SW982 | MHH-PREB-1 | TGW | LS-123 | GR-ST | K5 | ES8 | A253 cell line | TE-11 | BB65-RCC | COLO-320-HSR | C2BBe1 | LB1047-RCC | SF-268 | BE-13 | SJSA-1 | DEL

C=CC(=O)N1CCCC(Nc2nc(Nc3ccc(N(C)C(=O)CC)cc3)nc3[nH]cnc23)C1 (centres undefined)
4400 nM: EOL1
> 10200 nM: SW872 | DB | MC116 | JAR | MHH-NB-11 | DMS-114 | LS-411N | D-247MG | COLO-684 | 8-MG-BA | NMC-G1 | DSH1 | HAL-01 | no-10 | KM-H2 | NCI-H1650 | LB2241-RCC | CW-2 | GB-1 | NB6 | GT3TKB | TE-9 | MLMA | ES3 | SCC-15 | TGBC24TKB | GCIY | COLO-824 | BT-474 | A498 | RS4-11 | NCI-H526 | HH | SW982 | MHH-PREB-1 | TGW | LS-123 | GR-ST | K5 | ES8 | A253 cell line | TE-11 | BB65-RCC | COLO-320-HSR | C2BBe1 | LB1047-RCC | SF-268 | BE-13 | SJSA-1 | DEL

COc1ccc(N(C(=O)Oc2c(C)cccc2C)c2ccnc(Nc3ccc(N4CCN(C)CC4)cc3)n2)c(OC)c1
1040 nM: TGBC24TKB
189 nM: A498
< 20 nM: EOL1
858 nM: SW982
2490 nM: SF-268
1230 nM: GCIY
1920 nM: MLMA
4360 nM: LS-123
4700 nM: BB65-RCC
1160 nM: GB-1
1700 nM: NB6
4390 nM: TE-9
2860 nM: MC116
> 5120 nM: DB | JAR | MHH-NB-11 | LS-411N | D-247MG | COLO-684 | 8-MG-BA | NMC-G1 | DSH1 | HAL-01 | no-10 | KM-H2 | NCI-H1650 | LB2241-RCC | CW-2 | GT3TKB | ES3 | SCC-15 | COLO-824 | BT-474 | RS4-11 | NCI-H526 | HH | MHH-PREB-1 | TGW | GR-ST | K5 | ES8 | A253 cell line | TE-11 | COLO-320-HSR | C2BBe1 | BE-13 | SJSA-1 | DEL
75.9 nM: LB1047-RCC
865 nM: SW872
2790 nM: DMS-114

NC(=O)c1cccc(-c2cc(Nc3ccc(OC(F)(F)F)cc3)ncn2)c1
> 1280 nM: SW872 | DB | MC116 | JAR | MHH-NB-11 | DMS-114 | LS-411N | D-247MG | COLO-684 | 8-MG-BA | NMC-G1 | DSH1 | HAL-01 | no-10 | KM-H2 | NCI-H1650 | LB2241-RCC | CW-2 | GB-1 | NB6 | GT3TKB | EOL1 | TE-9 | MLMA | ES3 | SCC-15 | TGBC24TKB | GCIY | COLO-824 | BT-474 | A498 | RS4-11 | NCI-H526 | HH | SW982 | MHH-PREB-1 | TGW | LS-123 | GR-ST | K5 | ES8 | A253 cell line | TE-11 | BB65-RCC | COLO-320-HSR | C2BBe1 | LB1047-RCC | SF-268 | BE-13 | SJSA-1 | DEL
